Laboratory results as given in publication PMC10999085, “Synthesis, anticancer evaluation, molecular docking and ADME study of novel pyrido[4ʹ,3ʹ:3,4]pyrazolo[1,5-a]pyrimidines as potential tropomyosin receptor kinase A (TrKA) inhibitors” (BMC Chemistry, 2024).
≈ marks a conversion by molar mass, not a printed value. One block for each compound: values may come before it.

What was measured:
[1] = tested on: MCF7 cell line; test: MTT assay, MCF7 cell line; format: cell-based, human; details: 24 hr treatment, in % (unit assumed); for Cytotoxicity at 5 µg/l: MCF7, 5 µg/l; for Cytotoxicity at 10 µg/l: MCF7, 10 µg/l; for Cytotoxicity at 20 µg/l: MCF7, 20 µg/l
Protocol: (§1) Determination of the inhibitory effects of compounds on cell growth was performed through the MTT assay. This colorimetric assay is based on the conversion of the yellow tetrazolium bromide (MTT) to a purple formazan derivative by mitochondrial succinate dehydrogenase in viable cells. The protocol was discussed in details in Additional file 1.
(§2) Compounds 1, 4a,b, 7a–c, 7k, l, 9a–c, 14a, 15b, 16a–c were selected to be investigated against three human cancer cell lines MCF7, HepG2 and HCT116 cell lines using MTT assay using doxorubicin as the standard drug. Each point is the mean ± SD (standard deviation) of three independent experiments performed in triplicate, using the prism software program (integrated Graphpad software, version 3).
(§3) Cell lines were used to measure the cell growth effects of the compounds using the MTT assay. This colorimetric assay is depend on the conversion of the yellow tetrazolium bromide (MTT) to a purple formazan derivative by mitochondrial succinate dehydrogenase in living cells. Cell lines were cultured in RPMI-1640 medium supplemented with 10% fetal bovine serum. The antibiotics added were 100 units/ml penicillin and 100 µg/ml streptomycin at 37 °C in a 5% CO2 incubator. Cell lines were seeded in a 96-well plates at a density of 1.0x10^4 cells/well and cultured at 37 °C for 48 h under 5% CO2. After incubation, the cells were treated with different concentrations of compounds and incubated for 24 hr. After 24 hr of drug treatment, 20 µl of MTT solution at 5 mg/ml was added to each well and incubated for 4 hr. 100 µl of dimethyl sulfoxide (DMSO) was added into each well to dissolve the purple formazan formed. The colorimetric assay was measured and recorded at absorbance of 570 nm using a plate reader (EXL 800, USA). Relative cell viability (%) was calculated as (A570 of treated sample/A570 of untreated sample) x 100 [36, 37].

[2] = tested on: HepG2 cell line; test: MTT assay, HepG2 cell line; format: cell-based, human; details: MTT, 24 hr treatment, in % (unit assumed); for Cytotoxicity at 5 µg/l: HepG2, 5 µg/l; for Cytotoxicity at 10 µg/l: HepG2, 10 µg/l; for Cytotoxicity at 20 µg/l: HepG2, 20 µg/l
Protocol: as §1, §2, §3

[3] = tested on: HCT-116 cell line; test: MTT assay, HCT-116 cell line; format: cell-based, human; details: for Cytotoxicity at 5 µg/l: HCT116, 5 µg/l; for Cytotoxicity at 5 µg/l / Cytotoxicity at 10 µg/l / Cytotoxicity at 20 µg/l: MTT, 24 hr treatment, in % (unit assumed); for Cytotoxicity at 10 µg/l: HCT116, 10 µg/l; for Cytotoxicity at 20 µg/l: HCT116, 20 µg/l
Protocol: as §1, §2, §3

- melting point: 330 °C
SMILES: Cc1cc(C)n2nc3c(c2n1)C(=O)NC(=O)C3 [Compound 4a, 2,4-Dimethylpyrido[4ʹ,3ʹ:3,4]pyrazolo[1,5-a]pyrimidine-8,10(7H,9H)-diones]
- Cytotoxicity at 5 µg/l [1]: 35.61
- Cytotoxicity at 10 µg/l [1]: 74.99
- Cytotoxicity at 20 µg/l [1]: 84.71
- Cytotoxicity at 5 µg/l [2]: 15.91
- Cytotoxicity at 10 µg/l [2]: 60.95
- Cytotoxicity at 20 µg/l [2]: 82.16
- Cytotoxicity at 5 µg/l [3]: 56.23
- Cytotoxicity at 10 µg/l [3]: 71.78
- Cytotoxicity at 20 µg/l [3]: 84.77

- melting point: 300 °C
SMILES: O=C1Cc2nn3c(-c4ccccc4)cc(-c4ccccc4)nc3c2C(=O)N1 [Compound 4b, 2,4-Diphenylpyrido[4ʹ,3ʹ:3,4]pyrazolo[1,5-a]pyrimidine-8,10(7H,9H)-dione]
- Cytotoxicity at 5 µg/l [1]: 22.19
- Cytotoxicity at 10 µg/l [1]: 55.85
- Cytotoxicity at 20 µg/l [1]: 70.37
- Cytotoxicity at 5 µg/l [2]: 38.14
- Cytotoxicity at 10 µg/l [2]: 43.81
- Cytotoxicity at 20 µg/l [2]: 76.43
- Cytotoxicity at 5 µg/l [3]: 7.31
- Cytotoxicity at 10 µg/l [3]: 21.33
- Cytotoxicity at 20 µg/l [3]: 66.23

- melting point: 240 °C
SMILES: Cc1cc(C)n2nc3c(c2n1)C(=O)NC(=O)C3=Cc1ccccc1 [Compound 7a, 7-Benzylidene-2,4-dimethylpyrido[4ʹ,3ʹ:3,4]pyrazolo[1,5-a]pyrimidine-8,10(7H,9H)-dione]
- Cytotoxicity at 5 µg/l [1]: 30.13
- Cytotoxicity at 10 µg/l [1]: 45.66
- Cytotoxicity at 20 µg/l [1]: 66.12
- Cytotoxicity at 5 µg/l [2]: 38.17
- Cytotoxicity at 10 µg/l [2]: 42.56
- Cytotoxicity at 20 µg/l [2]: 76.04
- Cytotoxicity at 5 µg/l [3]: 50.82
- Cytotoxicity at 10 µg/l [3]: 84.52
- Cytotoxicity at 20 µg/l [3]: 91.78

- IC50 ([3]; Homo sapiens, HCT-116, HCT116, MTT, read-out: IC50 (drug concentration that inhibited 50% of cell proliferation)): 4.07 ng/mL (≈ 0.0115 µM)
- melting point: 260 °C
SMILES: Cc1cc(C)n2nc3c(c2n1)C(=O)NC(=O)C3=Cc1ccc(Cl)cc1 [Compound 7c]
- Cytotoxicity at 5 µg/l [1]: 40.12
- Cytotoxicity at 10 µg/l [1]: 69.00
- Cytotoxicity at 20 µg/l [1]: 92.48
- Cytotoxicity at 5 µg/l [2]: 35.08
- Cytotoxicity at 10 µg/l [2]: 41.65
- Cytotoxicity at 20 µg/l [2]: 67.89
- Cytotoxicity at 5 µg/l [3]: 50.56
- Cytotoxicity at 10 µg/l [3]: 68.21
- Cytotoxicity at 20 µg/l [3]: 68.85

- melting point: 275 °C
SMILES: O=C1NC(=O)c2c(nn3c(-c4ccccc4)cc(-c4ccccc4)nc23)C1=Cc1ccccc1 [Compound 7k, 7-Benzylidene-2,4-diphenylpyrido[4ʹ,3ʹ:3,4]pyrazolo[1,5-a]pyrimidine-8,10(7H,9H)-dione]
- Cytotoxicity at 5 µg/l [1]: 36.19
- Cytotoxicity at 10 µg/l [1]: 55.16
- Cytotoxicity at 20 µg/l [1]: 71.12
- Cytotoxicity at 5 µg/l [2]: 41.84
- Cytotoxicity at 10 µg/l [2]: 88.59
- Cytotoxicity at 20 µg/l [2]: 90.19
- Cytotoxicity at 5 µg/l [3]: 39.48
- Cytotoxicity at 10 µg/l [3]: 46.55
- Cytotoxicity at 20 µg/l [3]: 62.92

- melting point: 335 °C
SMILES: O=C1NC(=O)c2c(nn3c(-c4ccccc4)cc(-c4ccccc4)nc23)C1=Cc1ccco1 [Compound 7r, 7-(Furan-2-ylmethylene)-2,4-diphenylpyrido[4ʹ,3ʹ:3,4]pyrazolo[1,5-a]pyrimidine-8,10(7H,9H)-dione]

- melting point: 315 °C
SMILES: O=C1NC(=O)c2c(nn3c(-c4ccccc4)cc(-c4ccccc4)nc23)C1=Cc1cccs1 [Compound 7s, 2,4-Diphenyl-7-(thiophen-2-ylmethylene)pyrido[4ʹ,3ʹ:3,4]pyrazolo[1,5-a]pyrimidine-8,10(7H,9H)-dione]

- melting point: 340 °C
SMILES: O=C1NC(=O)c2c(nn3c(-c4ccccc4)cc(-c4ccccc4)nc23)C1=Cc1ccncc1 [Compound 7t, 2,4-Diphenyl-7-(pyridin-4-ylmethylene)pyrido[4ʹ,3ʹ:3,4]pyrazolo[1,5-a]pyrimidine-8,10(7H,9H)-dione]

- melting point: 300 °C
SMILES: Cc1cc(C)n2nc3c(c2n1)C(=O)NC(=O)C3=NNc1ccc(Cl)cc1 [Compound 9d, 7-(2-(4-Chlorophenyl)hydrazono)-2,4-dimethylpyrido[4ʹ,3ʹ:3,4]pyrazolo[1,5-a]pyrimidine-8,10(7H,9H)-dione]

- melting point: 315 °C
SMILES: O=C1NC(=O)c2c(nn3c(-c4ccccc4)cc(-c4ccccc4)nc23)C1=NNc1ccccc1 [Compound 11a, 2,4-Diphenyl-7-(2-phenylhydrazono)pyrido[4ʹ,3ʹ:3,4]pyrazolo[1,5-a]pyrimidine-8,10(7H,9H)-dione]

- melting point: 320 °C
SMILES: Cc1ccc(NN=C2C(=O)NC(=O)c3c2nn2c(-c4ccccc4)cc(-c4ccccc4)nc32)cc1 [Compound 11b, 2,4-Diphenyl-7-(2-(p-tolyl)hydrazono)pyrido[4ʹ,3ʹ:3,4]pyrazolo[1,5-a]pyrimidine-8,10(7H,9H)-dione]

- melting point: 335 °C
SMILES: O=C1NC(=O)c2c(nn3c(-c4ccccc4)cc(-c4ccccc4)nc23)C1=NNc1ccc(Cl)cc1 [Compound 11d, 7-(2-(4-Chlorophenyl)hydrazono)-2,4-diphenylpyrido[4ʹ,3ʹ:3,4]pyrazolo[1,5-a]pyrimidine-8,10(7H,9H)-dione]

- melting point: 310 °C
SMILES: O=C1Cc2nn3c(O)cc(-c4ccccc4)nc3c2C(=O)N1 [Compound 14b, 4-Hydroxy-2-phenylpyrido[4ʹ,3ʹ:3,4]pyrazolo[1,5-a]pyrimidine-8,10(7H,9H)-dione]

- melting point: 305 °C
SMILES: Cc1cc(O)n2nc3c(c2n1)C(=O)NC(=O)C3=Cc1ccccc1 [Compound 15a, 7-Benzylidene-4-hydroxy-2-methylpyrido[4ʹ,3ʹ:3,4]pyrazolo[1,5-a]pyrimidine-8,10(7H,9H)-dione]

- melting point: 330 °C
SMILES: Cc1cc(O)n2nc3c(c2n1)C(=O)NC(=O)C3=Cc1ccc(Cl)cc1 [Compound 15c, 7-(4-Chlorobenzylidene)-4-hydroxy-2-methylpyrido[4ʹ,3ʹ:3,4]pyrazolo[1,5-a]pyrimidine-8,10(7H,9H)-dione]

- melting point: 300 °C
SMILES: O=C1NC(=O)c2c(nn3c(O)cc(-c4ccccc4)nc23)C1=Cc1ccccc1 [Compound 15d, 7-Benzylidene-4-hydroxy-2-phenylpyrido[4ʹ,3ʹ:3,4]pyrazolo[1,5-a]pyrimidine-8,10(7H,9H)-dione]

- melting point: 300 °C
SMILES: COc1ccc(C=C2C(=O)NC(=O)c3c2nn2c(O)cc(-c4ccccc4)nc32)cc1 [Compound 15e, 4-Hydroxy-7-(4-methoxybenzylidene)-2-phenylpyrido[4ʹ,3ʹ:3,4]pyrazolo[1,5-a]pyrimidine-8,10(7H,9H)-dione]

- melting point: 330 °C
SMILES: O=C1NC(=O)c2c(nn3c(O)cc(-c4ccccc4)nc23)C1=Cc1ccc(Cl)cc1 [Compound 15f, 7-(4-Chlorobenzylidene)-4-hydroxy-2-phenylpyrido[4ʹ,3ʹ:3,4]pyrazolo[1,5-a]pyrimidine-8,10(7H,9H)-dione]

- melting point: 310 °C
SMILES: Cc1cc(O)n2nc3c(c2n1)C(=O)NC(=O)C3=NNc1ccc(Cl)cc1 [Compound 16d, 7-(2-(4-Chlorophenyl)hydrazono)-4-hydroxy-2-methylpyrido[4ʹ,3ʹ:3,4]pyrazolo[1,5-a]pyrimidine-8,10(7H,9H)-dione]

- melting point: 300 °C
SMILES: O=C1NC(=O)c2c(nn3c(O)cc(-c4ccccc4)nc23)C1=NNc1ccccc1 [Compound 16e, 4-Hydroxy-2-phenyl-7-(2-phenylhydrazono)pyrido[4ʹ,3ʹ:3,4]pyrazolo[1,5-a]pyrimidine-8,10(7H,9H)-dione]

- melting point: 320 °C
SMILES: Cc1ccc(NN=C2C(=O)NC(=O)c3c2nn2c(O)cc(-c4ccccc4)nc32)cc1 [Compound 16f, 4-Hydroxy-2-phenyl-7-(2-(p-tolyl)hydrazono)pyrido[4ʹ,3ʹ:3,4]pyrazolo[1,5-a]pyrimidine-8,10(7H,9H)-dione]

- melting point: 323 °C
SMILES: COc1ccc(NN=C2C(=O)NC(=O)c3c2nn2c(O)cc(-c4ccccc4)nc32)cc1 [Compound 16g, 4-Hydroxy-7-(2-(4-methoxyphenyl)hydrazono)-2-phenylpyrido[4ʹ,3ʹ:3,4]pyrazolo[1,5-a]pyrimidine-8,10(7H,9H)-dione]

- melting point: 330 °C
SMILES: O=C1NC(=O)c2c(nn3c(O)cc(-c4ccccc4)nc23)C1=NNc1ccc(Cl)cc1 [Compound 16h, 7-(2-(4-Chlorophenyl)hydrazono)-4-hydroxy-2-phenylpyrido[4ʹ,3ʹ:3,4]pyrazolo[1,5-a]pyrimidine-8,10(7H,9H)-dione]
